How the values were obtained:
[1] = Formulation stability with SBE-beta-CD (assay and impurities by HPLC, stressed storage); type: physicochemical
Experimental: 500 mL batches of each formulation (target pH 4.0 and pH 5.5) are prepared according to the recipe in Table 2 below. The vials used were 50 mL 20 mm Crown, type I, Vial (Gerresheimer), part number 80018303030. The stoppers used were 20 mm S10-F451 Stopper 4432/50 Gray, (Flurotec™ On Plug Only) B2-40 Coating Westar RS part number 19700021.
Each formulation is filtered with a 0.22 μm nylon syringe filter. Vials are filled with 10 mL of formulation, stoppered, sealed and placed at 40° C./75% relative humidity (RH) or at 60° C. (uncontrolled humidity) for up to 14 days. Each vial is placed inverted so that maximum stopper contact with the solution during the stability conditions can be achieved. At each time-point, vials from both conditions and formulations are pulled and analyzed for assay and impurities.
The assay and impurities as measured using the same HPLC method as used for assessing solubility.

Log P of free base = type: physicochemical
Experimental: (§1) The compound of formula (I) as a free base compound has a quite strong lipophilic behavior (Log P 4.13). […] Taking into account these characteristics, and based on pH requirements for intravenous (IV) solutions which is generally set ≥4.0, solubility studies were carried out to identify solubilizers able to substantially increase the aqueous solubility of the compound of formula (I).

mouse tumor models = assay: Single agent administration in mouse tumor models; type: in vivo
Source text: However the compound of formula (I) has low aqueous solubility, leading to the possibility of limited exposure in humans.

[2] = Solubility in water as a function of pH; type: physicochemical; conditions: aqueous buffer, pH≥4.5 (practically insoluble)
Experimental: as §1

[3] = Formulation pH 4.0 (2 mg/mL, SBE-beta-CD 40 mg/mL), 40° C./75% RH, time zero, pH exp 4.1
[4] = Formulation pH 4.0, 40° C./75% RH, Day 1, pH exp 4.1
[5] = Formulation pH 4.0, 40° C./75% RH, Day 3, pH exp 4.0
[6] = Formulation pH 4.0, 40° C./75% RH, Day 7, pH exp 4.1
[7] = Formulation pH 4.0, 40° C./75% RH, Day 14, pH exp 4.1
[8] = Formulation pH 4.0, 60° C., Day 1, pH exp 4.1
[9] = Formulation pH 4.0, 60° C., Day 3, pH exp 4.1
[10] = Formulation pH 4.0, 60° C., Day 7, pH exp 4.1
[11] = Formulation pH 4.0, 60° C., Day 14, pH exp 4.1
[12] = Formulation pH 4.0, 60° C., time zero, pH exp 4.1
[13] = Formulation pH 5.5 (2 mg/mL, SBE-beta-CD 40 mg/mL), 40° C./75% RH, time zero, pH exp 5.6
[14] = Formulation pH 5.5, 40° C./75% RH, Day 1, pH exp 5.6
[15] = Formulation pH 5.5, 40° C./75% RH, Day 3, pH exp 5.6
[16] = Formulation pH 5.5, 40° C./75% RH, Day 7, pH exp 5.7
[17] = Formulation pH 5.5, 40° C./75% RH, Day 14, pH exp 5.6
[18] = Formulation pH 5.5, 60° C., Day 1, pH exp 5.6
[19] = Formulation pH 5.5, 60° C., Day 3, pH exp 5.6
[20] = Formulation pH 5.5, 60° C., Day 7, pH exp 5.7
[21] = Formulation pH 5.5, 60° C., Day 14, pH exp 5.7
[22] = Formulation pH 5.5, 60° C., time zero, pH exp 5.6

In the case of `COc1cc(N2CCNCC2)ccc1Nc1ncc2c(n1)-n1ccc(C(=O)Nc3c(C)cccc3C)c1CC2` [compound of formula (I)], the “stability of formulation with SBE-beta-CD” value ([1]; 60° C. stressed conditions, formulation at pH 5.5 compared to pH 4.0) is reported as “lower impurities and lower loss of assay”, the “Assay (% of theoretical value of compound of formula (I))” value [1, 3] is reported as 96.8% and the Total impurities [1, 3] is reported as 1.1 % area. For the same compound, the “Assay (% of theoretical value of compound of formula (I))” value [1, 4] was 98.1%, the Total impurities [1, 4] was 1.1 % area and the “Assay (% of theoretical value of compound of formula (I))” value [1, 5] was 98.7%. The Total impurities [1, 5] was 1.3 % area, the “Assay (% of theoretical value of compound of formula (I))” value [1, 6] was 103.1% and the Total impurities [1, 6] was 1.3 % area. The “Assay (% of theoretical value of compound of formula (I))” value [1, 7] was 97.7%, the Total impurities [1, 7] was 1.4 % area and the “Assay (% of theoretical value of compound of formula (I))” value [1, 8] was 97.9%. The Total impurities [1, 8] was 1.4 % area, the “Assay (% of theoretical value of compound of formula (I))” value [1, 9] was 98.3% and the Total impurities [1, 9] was 2.0 % area. For the same compound, the “Assay (% of theoretical value of compound of formula (I))” value [1, 10] was 97.9%, the Total impurities [1, 10] was 3.4 % area and the “Assay (% of theoretical value of compound of formula (I))” value [1, 11] was 87.0%. For the same compound, the Total impurities [1, 11] was 4.7 % area, the “Assay (% of theoretical value of compound of formula (I))” value [1, 12] was 96.8% and the Total impurities [1, 12] was 1.1 % area. The “Assay (% of theoretical value of compound of formula (I))” value [1, 13] was 99.0%, the Total impurities [1, 13] was 1.1 % area and the “Assay (% of theoretical value of compound of formula (I))” value [1, 14] was 97.9%. For the same compound, the Total impurities [1, 14] was 1.2 % area, the “Assay (% of theoretical value of compound of formula (I))” value [1, 15] was 100.6% and the Total impurities [1, 15] was 1.3 % area. For the same compound, the “Assay (% of theoretical value of compound of formula (I))” value [1, 16] was 100.1%, the Total impurities [1, 16] was 1.2 % area and the “Assay (% of theoretical value of compound of formula (I))” value [1, 17] was 94.7%. For the same compound, the Total impurities [1, 17] was 1.3 % area, the “Assay (% of theoretical value of compound of formula (I))” value [1, 18] was 97.9% and the Total impurities [1, 18] was 1.3 % area. The “Assay (% of theoretical value of compound of formula (I))” value [1, 19] was 100.6%, the Total impurities [1, 19] was 1.5 % area and the “Assay (% of theoretical value of compound of formula (I))” value [1, 20] was 100.1%. The Total impurities [1, 20] was 2.0 % area, the “Assay (% of theoretical value of compound of formula (I))” value [1, 21] was 97.7% and the Total impurities [1, 21] was 3.0 % area. For the same compound, the “Assay (% of theoretical value of compound of formula (I))” value [1, 22] was 99.0%, the Total impurities [1, 22] was 1.1 % area and the “stability of formulation with SBE-beta-CD” value ([1]; pH 4.0 versus pH 5.5 at 40° C./75% RH stressed conditions) was “similar”. The logP (Log P of free base) was 4.13, the tumor response (mouse tumor models) was “regressions (and cures)” and the solubility [2] was ≤ 20 µg/mL.
